The IC50 is the concentration that inhibits the measured activity by half.

Series [1] concerns the target T1, NQO1 (Homo sapiens, UniProt P15559).
T1 construct: hexahistidine tag followed by a thrombin site (N); made in house; host or cells: Escherichia coli BL21 (DE3)
The series can be described thus: NQO1 activity assay (DCPIP reduction). The format is biochemical. The settings on record: purified recombinant protein, Fig. 3b; read-out: IC50, inhibition of NQO1 activity. As for the experimental part:
NQO1 activity was measured essentially as described previously. Assays were performed in 25 mM Tris–HCl, pH 7.4, 0.7 mg/mL BSA, 250 mM sucrose, 0.2 mM NADPH and 40 μM dichlorophenolindophenol (DCPIP) in the presence of NQO1 protein with 10, 5, 2.5, 1.25, 0.625, 0.3125, 0.15625 and 0 μM of MNPC. It is analyzed for the reduction of DCPIP measured at 600 nm.

Series [2] has as its target T2, AEP (asparagine endopeptidase) (Homo sapiens, UniProt Q99538).
T2 construct: endogenous in cells; host or cells: U87MG/EGFRvIII cells (lysate)
T2 sequence (Q99538 18-433): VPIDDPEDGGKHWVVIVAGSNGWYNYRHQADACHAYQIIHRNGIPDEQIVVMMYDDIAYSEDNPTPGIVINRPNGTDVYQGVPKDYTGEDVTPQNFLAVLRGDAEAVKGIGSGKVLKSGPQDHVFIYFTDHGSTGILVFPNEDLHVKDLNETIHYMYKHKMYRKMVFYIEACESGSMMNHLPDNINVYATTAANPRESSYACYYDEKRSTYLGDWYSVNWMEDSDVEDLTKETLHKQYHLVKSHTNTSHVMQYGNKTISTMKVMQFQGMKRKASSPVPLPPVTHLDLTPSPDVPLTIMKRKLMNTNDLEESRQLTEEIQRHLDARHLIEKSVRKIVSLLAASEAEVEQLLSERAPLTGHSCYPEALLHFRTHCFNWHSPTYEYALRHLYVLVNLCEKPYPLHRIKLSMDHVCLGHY
The series is described as follows: AEP activity assay in cell lysates. The format is cell-based. The settings on record: U87MG/EGFRvIII lysates, 0-5 μM. As to the method:
After different treatments, cell lysates were incubated in 200 μl assay buffer (20 mM citric acid, 60 mM Na2HPO4, 1 mM EDTA, 0.1% CHAPS and 1 mM DTT, pH 6.0) containing 20 μM AEP substrate Z-Ala-Ala-Asn-AMC (Bachem, USA). AMC released by substrate cleavage was quantified by measuring every 10 min at 460 nm in a fluorescence plate reader at 37 °C in kinetic mode for the total time of 1 h.

In series [3] the test system is U87MG/EGFRvIII cells. The series is described as follows: LDH, protein carbonyl and GSH/GSSG measurements. It counts as cell-based, human. The settings on record: dose-dependent, 0-5 μM. As for the experimental part:
(§1) After collecting the supernatants, the […] were measured using LDH assay kits (Promega Corporation, USA). Protein carbonyl level and GSH/GSSG ratio were measured from cell homogenates using Protein Carbonyl Assay Kit (#ab126287, Abcam, Cambridge MA, USA) and GSH/GSSG-Glo™ (Promega Corporation, USA), respectively.

Series [4] concerns the target T3, wild-type GSTP1 (Homo sapiens, UniProt P09211, I105V).
T3 construct: hexahistidine tag followed by a thrombin site (N); made in house; host or cells: Escherichia coli BL21 (DE3)
The series is described as follows: GSTP1 kinetic assay (GSH/CDNB conjugation), wild type. It counts as biochemical. The settings on record: Supplementary Table 1, mean ± SEM (n=3), 30 min pre-incubation; read-out: IC50 (μM), GSTP1 WT. As for the experimental part: (§2) The enzymatic activity of GSTP1 and its mutations was measured through the increased absorbance at 340 nm, which derived from the conjugation of reduced glutathione (GSH) and 1-chloro-2,4-dinitrobenzene (CDNB). The conjugation was initiated by adding CDNB to the mixture of GSH and GSTP1 or its mutants, and OD was immediately and continually measured for 20 min at 25 °C. The final assay mixture included 1 mM CDNB, 1 mM GSH in the buffer of 100 mM potassium phosphate pH 6.5, 1 mM EDTA. The inhibitory potency of MNPC versus GSTP1 or mutants was determined by calculating the residual activity after incubated with MNPC for 30 min at room temperature. Parallel control was run to monitor spontaneous conjugation of GSH and CDNB in the absence of the enzyme, and absorbance change of the control was used for the correction of an enzymatic reaction. The inhibition rate in triplicate was calculated by GraphPad Prism software (GraphPad, San Diego, CA) to give IC50 using nonlinear regression analysis.

For series [5], the target named is T4, GSTP1 R100A (Homo sapiens, UniProt P09211, I105V/R101A).
T4 construct: hexahistidine tag followed by a thrombin site (N); made in house; host or cells: Escherichia coli BL21 (DE3)
The series can be described thus: GSTP1 kinetic assay, R100A mutant. The format is biochemical. The settings on record: mean ± SEM (n=3). As to the method:
as §2

In series [6] the target is T5, GSTP1 V104A (Homo sapiens, UniProt P09211, I105A).
T5 construct: hexahistidine tag followed by a thrombin site (N); made in house; host or cells: Escherichia coli BL21 (DE3)
The series is described as follows: GSTP1 kinetic assay, V104A mutant. The format is biochemical. The settings on record: mean ± SEM (n=3). As for the experimental part: as §2

In series [7] the test system is U87MG/EGFRvIII cells. The series can be described thus: ROS measurement (DCFH-DA). The settings on record: dose-dependent, 0-5 μM. The format is cell-based, human. As for the experimental part: The DCFH-DA method was employed to detect the levels of intracellular reactive oxygen species (ROS). After various treatments, the cells were collected and then incubated with 5 μM DCFH-DA (ROS dye, #C6827, Invitrogen, USA) for 1 h at 37 °C. The fluorescence intensity was measured by the microplate reader (BioTek Instruments Inc., USA) with settings at excitation and emission equal to 485/535 nm.

The target of series [8] is T6, GSTP1 F8A (Homo sapiens, UniProt P09211, F9A/I105V).
T6 construct: hexahistidine tag followed by a thrombin site (N); made in house; host or cells: Escherichia coli BL21 (DE3)
The series is described as follows: GSTP1 kinetic assay, F8A mutant. The settings on record: mean ± SEM (n=3). It counts as biochemical. As to the method:
as §2

Series [9] concerns normal cells (HC11, ACS-5003, MEFs). The series can be described thus: Cell proliferation and LDH assays in normal cells. It counts as cell-based. The settings on record: up to 5 μM. As to the method: In vitro assessment was implemented for cell proliferation using the 3-(4, 5- dimethylthiazol- 2-yl)-2,5-diphenyltetrazolium bromide (MTT) assay. After different treatments with specific time periods, 10 μL of MTT (5 mg/mL in PBS, Sigma, USA) was added to each well and the plates were incubated for 3 h at 37 °C. The resulting formazan product was dissolved with DMSO. The absorbance at a wavelength of 490 nm was recorded using a microplate reader (BioTek Instruments Inc., USA).
as §1

T5 sequence (P09211 2-210 I105A): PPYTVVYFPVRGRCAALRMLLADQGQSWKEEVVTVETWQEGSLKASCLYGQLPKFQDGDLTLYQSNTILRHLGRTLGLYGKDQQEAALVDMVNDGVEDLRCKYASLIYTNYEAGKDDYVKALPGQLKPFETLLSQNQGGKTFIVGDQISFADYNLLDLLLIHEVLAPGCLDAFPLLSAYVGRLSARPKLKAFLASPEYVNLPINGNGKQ
T1 sequence (P15559 whole entry): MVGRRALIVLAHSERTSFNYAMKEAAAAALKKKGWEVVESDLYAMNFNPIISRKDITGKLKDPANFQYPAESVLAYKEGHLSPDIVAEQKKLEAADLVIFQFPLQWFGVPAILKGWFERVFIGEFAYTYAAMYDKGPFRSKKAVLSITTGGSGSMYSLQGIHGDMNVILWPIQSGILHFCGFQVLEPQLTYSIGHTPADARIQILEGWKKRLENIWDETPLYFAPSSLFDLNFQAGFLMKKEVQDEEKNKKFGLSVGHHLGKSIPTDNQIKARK
T4 sequence (P09211 whole entry R101A/I105V): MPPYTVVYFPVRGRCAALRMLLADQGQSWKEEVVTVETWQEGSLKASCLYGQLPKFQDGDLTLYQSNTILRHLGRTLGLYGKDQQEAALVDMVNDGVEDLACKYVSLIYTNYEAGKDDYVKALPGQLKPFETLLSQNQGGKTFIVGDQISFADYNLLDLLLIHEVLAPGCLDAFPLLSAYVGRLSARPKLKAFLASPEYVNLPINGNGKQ
T3 sequence (P09211 whole entry I105V): as the sequence (P09211 whole entry R101A/I105V) above, with A101R counted along it
T6 sequence (P09211 whole entry F9A/I105V): as the sequence (P09211 whole entry R101A/I105V) above, with F9A, A101R counted along it

Turning to `Cc1onc(-c2ccccc2)c1C(=O)Nc1ncc([N+](=O)[O-])s1` [MNPC, 5-methyl-N-(5-nitro-thiazol-2-yl)-3-phenylisoxazole-4-carboxamide], the IC50 in [1] is 926 nM; in series [4] it was 0.4 ± 0.39 µM; in series [5], 2.37 ± 0.38 µM; in series [6] it was 0.65 ± 0.19 µM; in series [8], 2.42 ± 0.36 µM. For the same compound, the “Inhibition of AEP” value in series [2] is on record as “nor inhibited”. Further, in [3], the Carbonyl expression result was “induced”. In [3], the GSH/GSSG ratio result was “downregulating”. Besides, in [3], the LDH release result was “induced”. For the same compound, the ROS levels entry in [7] was “elevated”. Further, the “Effect on cell proliferation of normal cells” value in [9] is reported as “barely affected”.

These data come from paper PMC7579906, “Discovery of a dual inhibitor of NQO1 and GSTP1 for treating glioblastoma” (Journal of Hematology & Oncology, 2020).
